Measured values taken from US12371430B2, “5-morpholin-4-yl-pyrazolo[4,3-b]pyridine derivatives” (Merck Patent GmbH, priority 2018, dated 2025).

Tests used:
ATR/ATRIP = ATR/ATRIP (Homo sapiens (Human), UniProt Q13535); test: ATR/ATRIP kinase assay (TR-FRET, p53 Ser15 phosphorylation); assay type: biochemical; conditions: 0.5 μM ATP, 50 nM p53
In short: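 Full-length human ATR/ATRIP co-expressed in mammalian cells (typically 0.3 nM) preincubated with compound 15 min at 22° C, then 50 nM cmyc-p53 and 0.5 μM ATP added for typically 25 min; HEPES pH 8.0 with Mg2+/Mn2+. p53 Ser15 phosphorylation read by HTRF (665/615 ratio); IC50 by nonlinear regression.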

[1] = test system: phosphorylation of Chk1 (Ser 345) in HT29 colon adenocarcinoma cells; test: pCHK1 cellular assay; assay type: cell-based; conditions: Homo sapiens, HT-29, hydroxyurea 3 mM, 4 h
In short: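 HT29 cells plated ≥20 h, then compound (1 nM–30 μM final) with hydroxyurea (3 mM final) added together for 4 h at 37 °C. After MeOH/Triton fixation-permeabilisation, anti-pChk1 immunostaining plus nuclear stain; nuclear pChk1 imaged by confocal high content reader, reported as % positive nuclei.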

[2] = target: Kv11.1 (hERG) ion channel (Homo sapiens (Human), UniProt Q12809); test: Kv11.1 (hERG) ion channel activity, whole cell patch clamp in HEK293; assay type: cell-based; conditions: for Ki: heading: hERG Ki, HEK293 cells stably expressing hERG, patch clamp
Protocol: Kv11.1 (hERG) Ion Channel Activity
In this assay, a potential in vitro effect of test compounds on the Kv11.1 (hERG) ion channel current is investigated which mediates the rapidly activating, delayed rectifier cardiac potassium current (IKr). The assay is performed with a stable Kv11.1 (hERG) transfected human embryonic kidney cell line (HEK293) by whole cell patch clamp technique carried out at room temperature.
The Kv11.1 (hERG) ion channel blocker quinidine is used as reference compound. The effects of the test compounds and quinidine are normalized to the corresponding vehicle control. The whole cell recordings are carried out with an automated patch clamp device Patchliner™, Nanion Technologies, Munich). Hereby the Patch Clamp measurements run on silicate-coated chips with a hole of a defined diameter. Solutions, cell suspension and compounds are applied by a Teflon-laminated pipette needle through microfluidic silicate-laminated channels. Commercial patch clamp amplifiers (EPC10, HEKA Elektronik Dr. Schulze GmbH, Germany) are used for the patch clamp recordings. HEK293 cells stably expressing the hERG gene are held at −80 mV. Steady-state inhibition of Kv11.1 (hERG) potassium current due to test/reference compound application is measured using a pulse pattern with fixed amplitudes: 51 ms/−80 mV, 500 ms/+40 mV, 500 ms/−40 mV, 200 ms/−80 mV. The hERG-specific voltage protocol is repeated at 10 s intervals. The leak current is subtracted by a P4 leak subtraction. Cells are resuspended in extracellular patch clamp solution (EC) and applied into the chip. After trapping the cell, the EC is exchanged by seal enhancer solution (SE) to improve the sealing procedure. When the whole cell configuration is attained, seal enhancer is washed out by the application of EC. The recording is started in EC for 1.5 min. Afterwards DMSO (vehicle control, 0.1% DMSO) is applied and the control current is measured for 3 min. Following control steady-state current, test compound is applied twice at the same concentration and the tail current is measured for 3.5 min each. For the determination of a concentration-relationship, the test compound is applied as a cumulative concentration-response curve and each concentration is measured for 5 min. The reference compound quinidine is treated in the same way. The effect on Kv11.1 (hERG) ion channel activity is judged from the tail current amplitude monitored at −40 mV (current of interest, COI). Results are calculated from the last recorded current traces. Changes in Kv11.1 (hERG) ion channel activity between control value, defined as 100% Kv11.1 (hERG) ion channel activity, application of test compound and application of quinidine is reported as percent change of control value of COI. An aliquot of test compound is collected for concentration verification during the recording. The sample is immediately measured by HPLC and the final compound concentration within the assay is calculated according to a calibration curve.

Chain of ATR/ATRIP (Q13535 whole entry): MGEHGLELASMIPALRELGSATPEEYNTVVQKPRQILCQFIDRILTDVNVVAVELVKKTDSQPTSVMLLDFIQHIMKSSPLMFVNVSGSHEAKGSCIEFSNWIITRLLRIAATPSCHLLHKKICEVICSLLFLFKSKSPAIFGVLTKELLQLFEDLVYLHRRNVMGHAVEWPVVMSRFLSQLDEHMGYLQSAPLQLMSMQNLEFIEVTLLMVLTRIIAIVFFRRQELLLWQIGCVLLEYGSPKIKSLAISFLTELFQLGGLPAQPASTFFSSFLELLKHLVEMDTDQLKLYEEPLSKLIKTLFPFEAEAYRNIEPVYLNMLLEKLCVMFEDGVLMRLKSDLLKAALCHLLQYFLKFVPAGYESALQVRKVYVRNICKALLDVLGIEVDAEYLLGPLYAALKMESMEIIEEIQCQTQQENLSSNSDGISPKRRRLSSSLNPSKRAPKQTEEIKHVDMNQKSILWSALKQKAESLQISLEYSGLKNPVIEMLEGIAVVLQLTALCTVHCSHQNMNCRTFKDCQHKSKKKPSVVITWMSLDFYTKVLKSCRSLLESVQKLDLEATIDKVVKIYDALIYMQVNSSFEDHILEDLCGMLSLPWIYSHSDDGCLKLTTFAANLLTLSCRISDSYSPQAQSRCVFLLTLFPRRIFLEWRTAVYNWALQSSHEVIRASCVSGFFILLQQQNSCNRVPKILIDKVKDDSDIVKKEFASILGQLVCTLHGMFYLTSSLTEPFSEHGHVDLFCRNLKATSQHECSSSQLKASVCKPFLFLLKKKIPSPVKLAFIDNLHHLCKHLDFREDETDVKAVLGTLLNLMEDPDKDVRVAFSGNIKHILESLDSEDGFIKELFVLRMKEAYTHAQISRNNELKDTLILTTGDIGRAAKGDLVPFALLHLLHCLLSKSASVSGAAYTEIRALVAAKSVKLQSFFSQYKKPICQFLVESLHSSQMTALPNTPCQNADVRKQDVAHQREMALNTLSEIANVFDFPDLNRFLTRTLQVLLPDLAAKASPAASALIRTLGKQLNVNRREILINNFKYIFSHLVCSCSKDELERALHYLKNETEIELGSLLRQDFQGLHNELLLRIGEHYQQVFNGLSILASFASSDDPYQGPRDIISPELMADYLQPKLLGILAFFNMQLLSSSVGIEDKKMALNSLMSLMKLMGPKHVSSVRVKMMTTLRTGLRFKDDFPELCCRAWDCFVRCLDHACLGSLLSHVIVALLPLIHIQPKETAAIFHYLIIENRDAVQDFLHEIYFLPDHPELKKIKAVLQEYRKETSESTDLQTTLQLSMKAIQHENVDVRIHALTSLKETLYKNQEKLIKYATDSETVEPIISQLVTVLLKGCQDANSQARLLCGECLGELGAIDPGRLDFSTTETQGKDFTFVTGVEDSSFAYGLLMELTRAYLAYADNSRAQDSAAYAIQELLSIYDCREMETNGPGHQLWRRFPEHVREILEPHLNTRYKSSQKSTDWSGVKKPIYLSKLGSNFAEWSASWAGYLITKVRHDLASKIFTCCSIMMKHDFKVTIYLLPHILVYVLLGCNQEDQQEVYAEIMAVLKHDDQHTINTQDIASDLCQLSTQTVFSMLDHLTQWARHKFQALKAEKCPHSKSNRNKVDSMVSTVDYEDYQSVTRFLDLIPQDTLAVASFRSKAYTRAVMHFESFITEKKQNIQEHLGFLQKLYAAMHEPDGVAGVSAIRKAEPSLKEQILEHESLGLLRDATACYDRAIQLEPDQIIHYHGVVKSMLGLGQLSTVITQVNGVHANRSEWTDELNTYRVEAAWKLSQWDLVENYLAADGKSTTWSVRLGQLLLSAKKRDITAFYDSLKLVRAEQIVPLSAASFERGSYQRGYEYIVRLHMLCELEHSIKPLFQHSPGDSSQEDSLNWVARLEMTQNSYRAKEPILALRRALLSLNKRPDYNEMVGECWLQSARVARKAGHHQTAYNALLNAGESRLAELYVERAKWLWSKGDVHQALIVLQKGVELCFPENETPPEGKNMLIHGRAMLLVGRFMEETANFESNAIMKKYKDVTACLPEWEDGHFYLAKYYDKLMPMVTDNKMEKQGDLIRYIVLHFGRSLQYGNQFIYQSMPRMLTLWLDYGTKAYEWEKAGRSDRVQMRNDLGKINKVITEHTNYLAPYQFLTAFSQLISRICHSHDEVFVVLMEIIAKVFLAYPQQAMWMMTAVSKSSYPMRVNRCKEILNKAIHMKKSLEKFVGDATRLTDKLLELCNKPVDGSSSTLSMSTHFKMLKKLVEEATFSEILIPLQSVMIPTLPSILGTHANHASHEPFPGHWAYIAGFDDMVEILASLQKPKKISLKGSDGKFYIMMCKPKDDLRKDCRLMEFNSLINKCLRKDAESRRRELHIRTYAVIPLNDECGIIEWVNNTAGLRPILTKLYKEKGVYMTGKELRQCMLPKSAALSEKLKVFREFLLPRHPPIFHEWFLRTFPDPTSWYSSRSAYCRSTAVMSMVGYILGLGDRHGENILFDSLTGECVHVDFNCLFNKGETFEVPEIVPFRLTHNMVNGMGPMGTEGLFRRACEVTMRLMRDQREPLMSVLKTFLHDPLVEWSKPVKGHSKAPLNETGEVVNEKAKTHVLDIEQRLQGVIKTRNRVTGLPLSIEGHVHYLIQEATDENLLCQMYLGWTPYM
Chain of ATR/ATRIP (Q8WXE1 whole entry partner): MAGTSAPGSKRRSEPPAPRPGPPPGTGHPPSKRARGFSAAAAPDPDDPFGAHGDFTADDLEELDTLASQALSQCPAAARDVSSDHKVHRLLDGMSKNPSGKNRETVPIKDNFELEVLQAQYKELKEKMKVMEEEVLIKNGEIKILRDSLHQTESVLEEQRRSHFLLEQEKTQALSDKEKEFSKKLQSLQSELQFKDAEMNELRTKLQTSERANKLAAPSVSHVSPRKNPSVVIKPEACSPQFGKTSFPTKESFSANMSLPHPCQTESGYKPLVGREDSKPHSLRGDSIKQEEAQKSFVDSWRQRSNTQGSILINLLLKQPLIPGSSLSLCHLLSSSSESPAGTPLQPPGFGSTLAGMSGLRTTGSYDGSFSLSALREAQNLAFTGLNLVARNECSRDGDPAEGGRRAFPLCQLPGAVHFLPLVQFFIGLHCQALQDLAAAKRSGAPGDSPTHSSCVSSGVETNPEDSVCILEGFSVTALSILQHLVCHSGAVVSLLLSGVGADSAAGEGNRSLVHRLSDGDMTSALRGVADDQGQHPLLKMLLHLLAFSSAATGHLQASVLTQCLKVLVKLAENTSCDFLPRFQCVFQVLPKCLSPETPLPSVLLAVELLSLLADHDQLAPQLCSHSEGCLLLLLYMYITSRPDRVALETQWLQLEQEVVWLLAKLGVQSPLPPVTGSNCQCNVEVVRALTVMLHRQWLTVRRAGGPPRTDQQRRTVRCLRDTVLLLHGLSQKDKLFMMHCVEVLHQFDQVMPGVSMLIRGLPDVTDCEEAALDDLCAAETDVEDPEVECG
Chain of Kv11.1 (hERG) ion channel (Q12809 whole entry): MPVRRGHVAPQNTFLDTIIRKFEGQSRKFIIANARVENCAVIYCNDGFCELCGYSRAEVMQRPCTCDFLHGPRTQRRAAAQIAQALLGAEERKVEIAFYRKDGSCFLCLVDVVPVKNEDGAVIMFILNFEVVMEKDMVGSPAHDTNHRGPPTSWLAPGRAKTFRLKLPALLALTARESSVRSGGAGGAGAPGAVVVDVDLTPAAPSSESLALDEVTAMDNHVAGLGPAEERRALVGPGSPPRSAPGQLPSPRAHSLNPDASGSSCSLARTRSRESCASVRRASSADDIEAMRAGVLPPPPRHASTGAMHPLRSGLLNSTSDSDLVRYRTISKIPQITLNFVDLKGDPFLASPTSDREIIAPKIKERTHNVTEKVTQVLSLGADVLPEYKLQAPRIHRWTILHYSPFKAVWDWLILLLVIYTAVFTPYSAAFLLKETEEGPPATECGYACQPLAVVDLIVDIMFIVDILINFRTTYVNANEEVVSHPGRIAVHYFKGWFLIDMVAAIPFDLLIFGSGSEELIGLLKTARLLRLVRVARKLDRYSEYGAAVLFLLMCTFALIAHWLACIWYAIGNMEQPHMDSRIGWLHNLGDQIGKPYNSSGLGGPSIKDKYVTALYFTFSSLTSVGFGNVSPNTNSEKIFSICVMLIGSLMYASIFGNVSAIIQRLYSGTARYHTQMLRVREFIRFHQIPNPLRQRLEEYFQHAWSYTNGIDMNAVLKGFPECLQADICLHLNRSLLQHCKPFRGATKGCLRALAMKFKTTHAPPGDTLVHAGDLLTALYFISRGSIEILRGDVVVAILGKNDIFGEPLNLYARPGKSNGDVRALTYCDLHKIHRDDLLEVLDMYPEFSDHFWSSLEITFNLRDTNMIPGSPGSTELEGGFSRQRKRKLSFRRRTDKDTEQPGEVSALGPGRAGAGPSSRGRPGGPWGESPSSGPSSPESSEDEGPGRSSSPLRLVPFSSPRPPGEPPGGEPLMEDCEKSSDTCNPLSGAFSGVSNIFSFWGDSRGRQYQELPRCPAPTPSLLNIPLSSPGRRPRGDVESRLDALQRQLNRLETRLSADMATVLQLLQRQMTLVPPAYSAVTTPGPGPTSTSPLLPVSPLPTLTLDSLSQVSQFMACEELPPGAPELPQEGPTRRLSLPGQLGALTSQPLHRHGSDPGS

| Structure (SMILES) | IC50 (ATR/ATRIP) | IC50 [1] | hERG % effect @ conc ([2]; @ 10 μM) | Ki [2] | hERG % effect @ conc ([2]; @ 30 μM) |
| --- | --- | --- | --- | --- | --- |
| Cc1cc(S(C)(=O)=O)ncc1-c1cc(N2CCOC[C@H]2C)nc2c(-c3cc[nH]n3)nn(C)c12 [Compound 17, 7-(6-Methanesulfonyl-4-methyl-pyridin-3-yl)-1-methyl-5-((R)-3-methyl-morpholin-4-yl)-3-(1H-pyrazol-3-yl)-1H-pyrazolo[4,3-b]pyridine] | 3.6 nM | 10 to 100 nM | 5% | > 10000 nM |  |
| C[C@@H]1COCCN1c1cc(C2CCCOC2)c2c(n1)c(-c1ccn[nH]1)nn2C (stereo partly drawn) [Compound 67, 1-Methyl-5-((R)-3-methyl-morpholin-4-yl)-3-(2H-pyrazol-3-yl)-7-(tetrahydro-pyran-3-yl)-1H-pyrazolo[4,3-b]pyridine] | 0.8 nM | 10 to 100 nM | −12% | > 10000 nM |  |
| C[C@@H]1COCCN1c1cc(-c2ccnn2C(F)F)c2c(n1)c(-c1ccn[nH]1)nn2C [Compound 78, (3R)-4-{7-[1-(Difluoromethyl)-1H-pyrazol-5-yl]-1-methyl-3-(1H-pyrazol-5-yl)-1H-pyrazolo[4,3-b]pyridin-5-yl}-3-methylmorpholine] |  | 10 to 100 nM |  | > 30000 nM | −12% |
| C[C@@H]1COCCN1c1cc([C@@H]2CCCOC2)c2c(n1)c(-c1ccn[nH]1)nn2C [Compound 69, 1-Methyl-5-((R)-3-methyl-morpholin-4-yl)-3-(2H-pyrazol-3-yl)-7-(S)-tetrahydro-pyran-3-yl-1H-pyrazolo[4,3-b]pyridine] |  | 10 to 100 nM |  | > 30000 nM | −29% |
| Cc1cc(S(C)(=O)=O)ccc1-c1cc(N2CCOC[C@H]2C)nc2c(-c3cc[nH]n3)nn(C)c12 [Compound 50, (3R)-4-[7-(4-Methanesulfonyl-2-methylphenyl)-1-methyl-3-(1H-pyrazol-3-yl)-1H-pyrazolo[4,3-b]pyridin-5-yl]-3-methylmorpholine] | 1.3 nM | < 10 nM | −17% | > 10000 nM |  |
| C[C@@H]1COCCN1c1cc(-c2ccc([S+](C)[O-])cc2)c2c(n1)c(-c1cc[nH]n1)nn2C (stereo partly drawn) [Compound 5, 7-(4-Methanesulfinyl-phenyl)-1-methyl-5-((R)-3-methyl-morpholin-4-yl)-3-(1H-pyrazol-3-yl)-1H-pyrazolo[4,3-b]pyridine] | 3.5 nM | 10 to 100 nM | −22% | > 10000 nM |  |
| Cc1ccc(-c2cc(N3CCOC[C@H]3C)nc3c(-c4cc[nH]n4)n[nH]c23)cn1 [Compound 2, 5-((R)-3-Methyl-morpholin-4-yl)-7-(6-methyl-pyridin-3-yl)-3-(1H-pyrazol-3-yl)-1H-pyrazolo[4,3-b]pyridine] | 0.8 nM | 10 to 100 nM | −3% | > 10000 nM |  |
| Cc1ccccc1-c1cc(N2CCOC[C@H]2C)nc2c(-c3ccn[nH]3)nn(C)c12 [Compound 49, (3R)-3-Methyl-4-[1-methyl-7-(2-methylphenyl)-3-(1H-pyrazol-5-yl)-1H-pyrazolo[4,3-b]pyridin-5-yl]morpholine] | 1.8 nM | 10 to 100 nM | −18% | > 10000 nM |  |
| C[C@@H]1COCCN1c1cc([C@H]2CCCOC2)c2c(n1)c(-c1ccn[nH]1)nn2C [Compound 68, 1-Methyl-5-((R)-3-methyl-morpholin-4-yl)-3-(2H-pyrazol-3-yl)-7-(R)-tetrahydro-pyran-3-yl-1H-pyrazolo[4,3-b]pyridine] |  | 10 to 100 nM |  | > 30000 nM | −35% |
| CC(C)n1cc(-c2cc(N3CCOC[C@H]3C)nc3c(-c4cc[nH]n4)nn(C)c23)cn1 [Compound 18, 7-(1-Isopropyl-1H-pyrazol-4-yl)-1-methyl-5-((R)-3-methyl-morpholin-4-yl)-3-(1H-pyrazol-3-yl)-1H-pyrazolo[4,3-b]pyridine] | 6.2 nM | 100 to 1000 nM | −14% | > 10000 nM |  |
| C[C@@H]1COCCN1c1cc(C2CCOCC2)c2c(n1)c(-c1ccn[nH]1)nn2C [Compound 55, 1-Methyl-5-((R)-3-methyl-morpholin-4-yl)-3-(2H-pyrazol-3-yl)-7-(tetrahydro-pyran-4-yl)-1H-pyrazolo[4,3-b]pyridine] | 0.7 nM | 10 to 100 nM | −14% | > 10000 nM |  |
| C[C@@H]1COCCN1c1cc(-c2ccnn2C)c2c(n1)c(-c1cc[nH]n1)nn2C [Compound 61, (3R)-3-Methyl-4-[1-methyl-7-(1-methyl-1H-pyrazol-5-yl)-3-(1H-pyrazol-3-yl)-1H-pyrazolo[4,3-b]pyridin-5-yl]morpholine] | 0.6 nM | 10 to 100 nM |  | > 30000 nM | −12% |
| C[C@@H]1COCCN1c1cc(-c2ccn(CCF)n2)c2c(n1)c(-c1cc[nH]n1)nn2C [Compound 34, 7-[1-(2-Fluoro-ethyl)-1H-pyrazol-3-yl]-1-methyl-5-((R)-3-methyl-morpholin-4-yl)-3-(1H-pyrazol-3-yl)-1H-pyrazolo[4,3-b]pyridine] | 6.1 nM | 10 to 100 nM | −1% | > 10000 nM |  |
| C[C@@H]1COCCN1c1cc(-c2ccnc3[nH]ccc23)c2c(n1)c(-c1cc[nH]n1)nn2C [Compound 15, 1-Methyl-5-((R)-3-methyl-morpholin-4-yl)-3-(1H-pyrazol-3-yl)-7-(1H-pyrrolo[2,3-b]pyridin-4-yl)-1H-pyrazolo[4,3-b]pyridine] | 0.6 nM | 10 to 100 nM | −24% | > 10000 nM |  |
| C[C@@H]1COCCN1c1cc(-c2ccncc2F)c2c(n1)c(-c1cc[nH]n1)nn2C [Compound 20, 7-(3-Fluoro-pyridin-4-yl)-1-methyl-5-((R)-3-methyl-morpholin-4-yl)-3-(1H-pyrazol-3-yl)-1H-pyrazolo[4,3-b]pyridine] | 1.2 nM | 10 to 100 nM | −11% | > 10000 nM |  |
| C[C@@H]1COCCN1c1cc(-c2cccc(C#N)c2)c2c(n1)c(-c1cc[nH]n1)nn2C [Compound 48, 3-{1-Methyl-5-[(3R)-3-methylmorpholin-4-yl]-3-(1H-pyrazol-3-yl)-1H-pyrazolo[4,3-b]pyridin-7-yl}benzonitrile] | 2 nM | 10 to 100 nM | −32% | > 10000 nM |  |
| C[C@@H]1COCCN1c1cc(-c2cncn2C)c2c(n1)c(-c1cc[nH]n1)nn2C [Compound 42, 1-Methyl-7-(3-methyl-3H-imidazol-4-yl)-5-((R)-3-methyl-morpholin-4-yl)-3-(1H-pyrazol-3-yl)-1H-pyrazolo[4,3-b]pyridine] | 0.3 nM | < 10 nM |  | > 30000 nM | −26% |
| C[C@@H]1COCCN1c1cc(C2CCOC2)c2c(n1)c(-c1ccn[nH]1)nn2C (stereo partly drawn) [Compound 70, 1-Methyl-5-((R)-3-methyl-morpholin-4-yl)-3-(2H-pyrazol-3-yl)-7-(tetrahydro-furan-3-yl)-1H-pyrazolo[4,3-b]pyridine] | 2.2 nM | 10 to 100 nM | −20% | > 10000 nM |  |
| C[C@@H]1COCCN1c1cc([C@@H]2CCOC2)c2c(n1)c(-c1ccn[nH]1)nn2C [Compound 71, 1-Methyl-5-((R)-3-methyl-morpholin-4-yl)-3-(2H-pyrazol-3-yl)-7-(S)-tetrahydro-furan-3-yl-1H-pyrazolo[4,3-b]pyridine] |  | 10 to 100 nM | −16% | > 10000 nM |  |
